Test results reported in US20250049806A1, “PHARMACEUTICAL COMPOSITION FOR PROVIDING TREATMENT FOR OR PREVENTING ALPORT SYNDROME” (UBE Corporation, priority 2021, published 2025).

experiment: Transcellular transport test using Caco2 cell; assay type: in vitro ADME; details: human, Caco-2, apical-to-basolateral (A-to-B), pH=7.4, 10 µM compound
Method: Caco2 cells (purchased from ATCC) were cultured in DMEM medium (Thermo Fisher Scientific, Inc., 11965) containing 10% FBS (Thermo Fisher Scientific, Inc., 10082) and 1% penicillin/streptomycin/amphotericin B (Thermo Fisher Scientific, Inc., 15240). A transcellular transport test was carried out in accordance with MultiScreen Caco2 Drug Transport Assembly in a 96-well system (Application Note AN1727EN, MultiScreen Caco-2 Assay System, Merck) by partially modifying it. The Caco2 cells were inoculated at a cell density of 4×10^4 cells/well onto a micropore polycarbonate insert of a 96-well plate (Merck, Millcell-96 culture insert plate 0.4 μm pore size, well membrane area=0.11 cm^2, PSHT004S5) and cultured for 20 to 22 days, and the resulting monolayer was used in the transcellular transport test. The medium of the inoculated cells was replaced with a fresh one every 3 to 4 days.
Apical-to-basolateral (A-to-B) transport in the Caco2 cell monolayer membrane was performed by using HBSS (Thermo Fisher Scientific, Inc., 14025) medium (pH=7.4) containing 20 mM HEPES (Thermo Fisher Scientific, Inc., 15630), and adding HEPES-containing HBSS medium containing 10 µM compound (a 10 mM solution of the compound in DMSO was added at a 1000-fold dilution; final DMSO concentration: 0.1%) at 75 μL/well to the apical side and HEPES-containing HBSS medium supplemented with no compound at 250 μL/well to the basolateral side, followed by culture at 37° C. for 90 minutes. After culture, a 100 μL aliquot was collected from the basolateral side, and the concentration of a permeated compound was measured by LC-MS/MS under measurement conditions mentioned later. Papp (apparent permeability; cm/sec) was calculated from the determined concentration. Papp was determined according to the expression given below by calculating the slope (dA/dt; nmol/sec) of a straight line drawn between two points 0 minutes and zero amount of the compound in a graph plotted with an assay time (90 min) on the abscissa against the amount of the compound in the solution on the permeated side on the ordinate. As for an assay concentration, the concentration in the compound in the HEPES-containing HBSS medium containing the added compound was measured by UV-HPLC under measurement conditions mentioned later.
C0: assay concentration, S: plate membrane area=0.11 cm^2
• LC: LC20 or LC30 HPLC system manufactured by Shimadzu Corp. • Column: Phenomenex Kinetex C18 (50 mm×2.1 mm, 2.6 μm) • Column temperature: 40° C. • Flow rate: 0.3 mL/min • Mobile phase A: 0.1% aqueous formic acid solution • Mobile phase B: 0.1% formic acid, 50% acetonitrile/methanol mixed solution • Gradient: 0-2 min; A/B=90/10 to 10/90, 2-3 min; A/B=10/90, 3-3.01 min; A/B=10/90 to 90/10 • MS: Q-Trap3200 manufactured by AB Sciex Pte. Ltd. • Ionization: ESI • Mode: Positive
• LC: LC20 or LC30 HPLC system manufactured by Shimadzu Corp. • Column: Phenomenex Kinetex C18 (100 mm×2.1 mm, 2.6 μm) • Column temperature: 40° C. • Flow rate: 0.25 mL/min • Mobile phase A: 0.1% aqueous formic acid solution • Mobile phase B: 0.1% formic acid, 50% acetonitrile/methanol mixed solution • Gradient: 0-3 min; A/B=90/10, 3-11 min; A/B=90/10 to 5/95, 11-15 min; A/B=5/95, 15-15.1 min; A/B=5/95 to 90/10 • UV detector: photodiode array detector
A: Papp>1×10^−6 (cm/sec), B: 1×10^−6 (cm/sec)≥Papp>5×10^−7 (cm/sec), C: 5×10^−7 (cm/sec)≥Papp>1×10^−7 (cm/sec), or D: Papp≤1×10^−7 (cm/sec).

| SMILES | Papp A→B at 90 min, 10 µM |
| --- | --- |
| O=C(O)C[C@H](NC(=O)CNC(=O)c1cc(NC2=NCC(F)CN2)c2cn[nH]c2c1)c1cc(Cl)cc(I)c1 (stereo partly drawn) [21-(b), (3S)-3-(3-chloro-5-iodophenyl)-3-(2-(4-((5-fluoro-1,4,5,6-tetrahydropyrimidin-2-yl)amino)-1H-indazole-6-carboxamido)acetamido)propanoic acid] | > 1 ×10⁻⁶ cm/s |
| O=C(O)C[C@H](NC(=O)CNC(=O)c1cc(NC2=NCC(F)CN2)c2cn[nH]c2c1)c1cc(OC(F)F)cc(C(F)(F)F)c1 (stereo partly drawn) [24-(b), (3S)-3-(3-(difluoromethoxy)-5-(trifluoromethyl)phenyl)-3-(2-(4-((5-fluoro-1,4,5,6-tetrahydropyrimidin-2-yl)amino)-1H-indazole-6-carboxamido)acetamido)propanoic acid] | 0.5 to 1 ×10⁻⁶ cm/s |
| O=C(O)C[C@H](NC(=O)CNC(=O)c1cc(NC2=NCC(F)CN2)c2cn[nH]c2c1)c1cc(OC(F)F)ccc1F (stereo partly drawn) [28-(b), (3S)-3-(5-(difluoromethoxy)-2-fluorophenyl)-3-(2-(4-((5-fluoro-1,4,5,6-tetrahydropyrimidin-2-yl)amino)-1H-indazole-6-carboxamido)acetamido)propanoic acid] | > 1 ×10⁻⁶ cm/s |
| O=C(O)C[C@H](NC(=O)CNC(=O)c1cc(NC2=NCC(F)CN2)c2cn[nH]c2c1)c1cc(OC(F)F)cc(-n2cccn2)c1 (stereo partly drawn) [29-(b), (3S)-3-(3-(difluoromethoxy)-5-(1H-pyrazol-1-yl)phenyl)-3-(2-(4-((5-fluoro-1,4,5,6-tetrahydropyrimidin-2-yl)amino)-1H-indazole-6-carboxamido)acetamido)propanoic acid] | 0.1 to 0.5 ×10⁻⁶ cm/s |
| O=C(O)C[C@H](NC(=O)CNC(=O)c1cc(NC2=NCC(F)CN2)c2cn[nH]c2c1)c1cc(OC(F)F)cc(OC(F)F)c1 (stereo partly drawn) [30-(b), (3S)-3-(3,5-bis(difluoromethoxy)phenyl)-3-(2-(4-((5-fluoro-1,4,5,6-tetrahydropyrimidin-2-yl)amino)-1H-indazole-6-carboxamido)acetamido)propanoic acid] | 0.5 to 1 ×10⁻⁶ cm/s |
| O=C(O)C[C@H](NC(=O)CNC(=O)c1cc(NC2=NCC(F)CN2)c2cn[nH]c2c1)c1cc(Cl)cc(OC(F)(F)F)c1 (stereo partly drawn) [31-(b), (3S)-3-(3-chloro-5-(trifluoromethoxy)phenyl)-3-(2-(4-((5-fluoro-1,4,5,6-tetrahydropyrimidin-2-yl)amino)-1H-indazole-6-carboxamido)acetamido)propanoic acid] | > 1 ×10⁻⁶ cm/s |
| O=C(O)C[C@H](NC(=O)CNC(=O)c1cc(NC2=NCC(F)CN2)c2cn[nH]c2c1)c1cccc(C(F)(F)F)c1 (stereo partly drawn) [35-(b), (3S)-3-(2-(4-((5-fluoro-1,4,5,6-tetrahydropyrimidin-2-yl)amino)-1H-indazole-6-carboxamido)acetamido)-3-(3-(trifluoromethyl)phenyl)propanoic acid] | > 1 ×10⁻⁶ cm/s |
| O=C(O)C[C@H](NC(=O)CNC(=O)c1cc(NC2=NCC(F)CN2)c2cn[nH]c2c1)c1cccc(C(F)F)c1 (stereo partly drawn) [38-(b), (3S)-3-(3-(difluoromethyl)phenyl)-3-(2-(4-((5-fluoro-1,4,5,6-tetrahydropyrimidin-2-yl)amino)-1H-indazole-6-carboxamido)acetamido)propanoic acid] | > 1 ×10⁻⁶ cm/s |

Second part, the molecule after the results:

| Papp A→B at 90 min, 10 µM | SMILES |
| --- | --- |
| > 1 ×10⁻⁶ cm/s | O=C(O)C[C@H](NC(=O)CNC(=O)c1cc(NC2=NCC(F)CN2)c2cn[nH]c2c1)c1cc(Cl)ccc1F (stereo partly drawn) [22-(b), (3S)-3-(5-chloro-2-fluorophenyl)-3-(2-(4-((5-fluoro-1,4,5,6-tetrahydropyrimidin-2-yl)amino)-1H-indazole-6-carboxamido)acetamido)propanoic acid] |
| > 1 ×10⁻⁶ cm/s | O=C(O)C[C@H](NC(=O)CNC(=O)c1cc(NC2=NCC(F)CN2)c2cn[nH]c2c1)c1cc(Br)ccc1F (stereo partly drawn) [23-(b), (3S)-3-(5-bromo-2-fluorophenyl)-3-(2-(4-((5-fluoro-1,4,5,6-tetrahydropyrimidin-2-yl)amino)-1H-indazole-6-carboxamido)acetamido)propanoic acid] |
| > 1 ×10⁻⁶ cm/s | O=C(O)C[C@H](NC(=O)CNC(=O)c1cc(NC2=NCC(F)CN2)c2cn[nH]c2c1)c1cc(Cl)cc(OC(F)F)c1 (stereo partly drawn) [25-(b), (3S)-3-(3-chloro-5-(difluoromethoxy)phenyl)-3-(2-(4-((5-fluoro-1,4,5,6-tetrahydropyrimidin-2-yl)amino)-1H-indazole-6-carboxamido)acetamido)propanoic acid] |
| > 1 ×10⁻⁶ cm/s | O=C(O)C[C@H](NC(=O)CNC(=O)c1cc(NC2=NCC(F)CN2)c2cn[nH]c2c1)c1cc(Br)cc(OC(F)F)c1 (stereo partly drawn) [26-(b), (3S)-3-(3-bromo-5-(difluoromethoxy)phenyl)-3-(2-(4-((5-fluoro-1,4,5,6-tetrahydropyrimidin-2-yl)amino)-1H-indazole-6-carboxamido)acetamido)propanoic acid] |
| > 1 ×10⁻⁶ cm/s | O=C(O)C[C@H](NC(=O)CNC(=O)c1cc(NC2=NCC(F)CN2)c2cn[nH]c2c1)c1ccc(F)c(OC(F)F)c1 (stereo partly drawn) [27-(b), (3S)-3-(3-(difluoromethoxy)-4-fluorophenyl)-3-(2-(4-((5-fluoro-1,4,5,6-tetrahydropyrimidin-2-yl)amino)-1H-indazole-6-carboxamido)acetamido)propanoic acid] |
| > 1 ×10⁻⁶ cm/s | O=C(O)C[C@H](NC(=O)CNC(=O)c1cc(NC2=NCC(F)CN2)c2cn[nH]c2c1)c1cc(Br)cc(OC(F)(F)F)c1 (stereo partly drawn) [32-(b), (3S)-3-(3-bromo-5-(trifluoromethoxy)phenyl)-3-(2-(4-((5-fluoro-1,4,5,6-tetrahydropyrimidin-2-yl)amino)-1H-indazole-6-carboxamido)acetamido)propanoic acid] |
| > 1 ×10⁻⁶ cm/s | O=C(O)C[C@H](NC(=O)CNC(=O)c1cc(NC2=NCC(F)CN2)c2cn[nH]c2c1)c1cc(OC(F)(F)F)ccc1F (stereo partly drawn) [33-(b), (3S)-3-(2-(4-((5-fluoro-1,4,5,6-tetrahydropyrimidin-2-yl)amino)-1H-indazole-6-carboxamido)acetamido)-3-(2-fluoro-5-(trifluoromethoxy)phenyl)propanoic acid] |
| > 1 ×10⁻⁶ cm/s | O=C(O)C[C@H](NC(=O)CNC(=O)c1cc(NC2=NCC(F)CN2)c2cn[nH]c2c1)c1ccc(F)c(OC(F)(F)F)c1 (stereo partly drawn) [34-(b), (3S)-3-(2-(4-((5-fluoro-1,4,5,6-tetrahydropyrimidin-2-yl)amino)-1H-indazole-6-carboxamido)acetamido)-3-(4-fluoro-3-(trifluoromethoxy)phenyl)propanoic acid] |
| > 1 ×10⁻⁶ cm/s | O=C(O)C[C@H](NC(=O)CNC(=O)c1cc(NC2=NCC(F)CN2)c2cn[nH]c2c1)c1cccc(OC(F)(F)F)c1 (stereo partly drawn) [36-(b), (3S)-3-(2-(4-((5-fluoro-1,4,5,6-tetrahydropyrimidin-2-yl)amino)-1H-indazole-6-carboxamido)acetamido)-3-(3-(trifluoromethoxy)phenyl)propanoic acid] |
| > 1 ×10⁻⁶ cm/s | O=C(O)C[C@H](NC(=O)CNC(=O)c1cc(NC2=NCC(F)CN2)c2cn[nH]c2c1)c1cccc(OC(F)F)c1 (stereo partly drawn) [37-(b), (3S)-3-(3-(difluoromethoxy)phenyl)-3-(2-(4-((5-fluoro-1,4,5,6-tetrahydropyrimidin-2-yl)amino)-1H-indazole-6-carboxamido)acetamido)propanoic acid] |
| > 1 ×10⁻⁶ cm/s | O=C(O)C[C@H](NC(=O)CNC(=O)c1cc(NC2=NCC(F)CN2)c2cn[nH]c2c1)c1cccc(C2CC2)c1 (stereo partly drawn) [39-(b), (3S)-3-(3-cyclopropylphenyl)-3-(2-(4-((5-fluoro-1,4,5,6-tetrahydropyrimidin-2-yl)amino)-1H-indazole-6-carboxamido)acetamido)propanoic acid] |
